System: wheat cultivar 'Smiths Gold'
Test: Field trial: fenclorim seed treatment safening wheat against preemergence S-metolachlor (crop injury)
Assay type: in vivo
Experimental: Thus, in some embodiments, the methods of the present invention reduce herbicide-induced crop injury. The reduction in crop injury, due to a particular herbicide, provided by a particular safener can be determined by visually assessing crop injury in a plot of wheat treated with both the herbicide and the safener and comparing it to the crop injury observed in a control plot that was treated with the herbicide alone. Crop injury may be assessed by assigning the treated plot a rating on a scale of 0 to 100, wherein 0 indicates no crop injury and 100 indicates complete crop destruction. This score may be assigned, for example, by comparing the crop groundcover (i.e., green pixels) in the treated plot to that of the control plot using photographs.
Group 15 herbicides are promising candidates for controlling ryegrass in wheat. However, these herbicides are not currently registered for use in this crop. Thus, a field trial was conducted in Fayetteville, Ark. in fall of 2021 to test the ability of the safener fenclorim to protect wheat against the Group 15 herbicide S-metolachlor.
Seed from the conventional wheat cultivar ‘Smiths Gold’ was treated with various rates of the safener fenclorim (0, 0.5, and 2.0 g/kg seed). […] Crop injury and control of ryegrass were evaluated at two and three weeks after crop emergence. […]

## Clc1cc(Cl)nc(-c2ccccc2)n1 [fenclorim, 4,6-dichloro-2-phenyl-pyrimidine]
Fenclorim seed treatment 0.5 and 2.0 g/kg seed, S-metolachlor 750 and 1120 g ai/ha preemergence, two and three weeks after crop emergence, field, Fayetteville, Ark.
  safening against S-metolachlor (percentage of injury to wheat): significant safening was achieved
Fenclorim seed treatment 0.5 or 2.0 g/kg seed, S-metolachlor 750 g ai/ha preemergent, two weeks after crop emergence
  safening shown in plot photos of wheat plants: safening provided

— US20230240296A1, “SEED TREATMENT FOR SAFENING WHEAT TO CHLOROACETAMIDE HERBICIDES” (THE BOARD OF TRUSTEES OF THE UNIVERSITY OF ARKANSAS, priority 2022, published 2023)
